# Assays:
# Lipoxygenase = test: Ex-Vivo Measurement of Lipoxygenase Inhibition in Orally Dosed Rats (LTB4); design: species or system rat (male Sprague Dawley); settings: p.o.
# Method: 2. Ex-Vivo Measurement of Lipoxygenase Inhibition in Orally Dosed Rats
# Male Sprague Dawley rats (Charles River) weighing between 180 g and 200 g were dosed orally with an invention compound (1-25 mg/kg, po) suspended in 0.5% Tween 80®. After an interval of 3 or 6 hours, the rats were anesthetized with metofane (n=4/group) and blood collected in heparinized tubes. White blood cell counts and differentials were made. One ml of blood from each animal was placed in a 5 ml plastic tube in a shaker bath at 37° C. A23187 at a final concentration of 10 μM was added to the blood and the blood vortexed and incubated for 15 min at […] with gentle shaking. Incubation was terminated by vortexing sample and centrifuging immediately at 1200 xG for 15 min at 4° C. The plasma was transferred to 15 ml plastic tubes each containing 8 ml of methanol to precipitate protein followed by vortexing. The samples were stored at -70 ° C. overnight and the next day the samples were centrifuged at 800 xG for 15 min to pellet the precipitate. The samples were dried in a Savant SpeedVac Concentrator Model SVC 200H and reconstituted to the original volume with cold RIA or ELISA buffer. The reconstituted samples were stored at -70° C. until assayed. The assay for LTB4 was performed according to the directions of the [^3 H]RIA kit or ELISA kit (Seragen). The total metabolite level in 1 ml of blood is calculated and reported as ng/10^6 neutrophils. Significance is determined by a one-way analysis of variance with LSD comparisons to control (p≤0.05).
# LTB4 Synthesis = test: Reverse Passive Arthus Reaction (pleurisy), LTB4 in pleural exudate; type: in vivo, rat (male Lewis); settings: p.o.
# Method: 3. Reverse Passive Arthus Reaction
# A reverse passive Arthus reaction is induced in the pleural cavity of male Lewis rats (150-200 g; fasted overnight prior to use) by the intravenous administration of bovine serum albumin (BSA; 4 mg/0.2 ml) followed 30 minutes later by the injection of rabbit anti-BSA (1 mg/0.2 ml; lyophilized IgG fraction; Organon Teknika, West Chester, Pa.) into the right pleural space under halothane anesthesia. Drugs or vehicle (0.5% Tween-80) control are administered orally in a volume of 1 ml/100 g body weight at 1 hour prior to the anti-BSA. Animals are sacrificed at either the time of peak eicosanoid production (i.e. 5 minutes after anti-BSA for immunoreactive TxB2, 10 minutes for immunoreactive LTB4, 20 minutes for immunoreactive LTC4) or at the time of peak neutrophil infiltration (4 hours after anti-BSA) by CO2 inhalation. The pleural cavity is then exposed., the fluid exudate removed by gentle vacuum aspiration and the volume of exudate is recorded. For the determination of cellular infiltration, the pleural cavity is rinsed with 3 ml of 0.1% EDTA in sterile saline, and the recovered wash is pooled with the exudate. Cell number is determined on a model ZBI Coulter counter. For determination of eicosanoid production, undiluted pleural exudate is microfuged and the supernatant is extracted with ethanol (8-10 times volume). Extracts are either stored at -20° C., or are evaporated to dryness under a stream of N2 and reconstituted in radioimmunoassay (RIA) buffer.
# Eicosanoids are quantitated by RIA according to the procedure specified by the RIA kit manufacturer (Advanced Magnetics, Cambridge, Mass.). Briefly, 100 μl of ^3 H-labeled eicosanoid and 100 μl of specific antibody are sequentially added to 100 μl of extracted pleural exudate in BGG-phosphate buffer which contains 0.01M phosphate, 0.1% bovine gamma globulin and 0.1% sodium azide at pH 7.0. Antibody-bound eicosanoid is separated from unbound eicosanoid by the addition of 750 μl of dextran (0.4%)-coated charcoal (Norit A) containing 0.1% sodium azide. The mixture is centrifuged at 2000 RPM at 5° C. for 15 minutes to pellet the charcoal and adsorbed unbound eicosanoid. Antibody-bound labeled eicosanoid is quantitated by counting in a liquid scintillation counter, and is correlated to concentration by a standard curve.
# [1] = tested on: LT-dependent bronchoconstriction; test: Inhibition of Bronchoconstriction in Guinea Pigs Induced by Exogenously Administered Antigen; type: in vivo, guinea pig (male); settings: Cavia porcellus, 5 min, 5 min post-antigen challenge; for inhibition in vivo at 10 mg/kg: iv, 10 mg/kg i.v.
# Method: 4. Inhibition of Brochoconstriction in Guinea Pigs Induced by Exogenously Administered Antigen
# Male guinea pigs (Charles River, Wilmington, Mass.) were sensitized 3-4 weeks prior to antigen challenge by administration of 2 i.m. injections of ovalbumin, 1 into each hind limb (35 mg total). Sensitized animals (500-600 g) were fasted overnight prior to experimentation. Conscious animals were then dosed p.o. with drug or vehicle alone (0.5% Tween 80 in H2 O) at the indicated times prior to antigen challenge, or anesthetized animals were dosed i.v. with drug or vehicle alone (DMSO) 5 min prior to antigen challenge. Animals were anesthetized by urethane (2.8 g/kg i.p.). A carotid artery and jugular vein were cannulated to allow for the monitoring of blood pressure and the administration of drugs, respectively. The trachea was then cannulated and connected to a Harvard Apparatus rodent ventilator (S. Natick, Mass.). Spontaneous respiration was abolished by the administration of succinylcholine (2.5 mg/kg i.v.). The animals were then ventilated with room air at a rate of 65 breaths per min. Airway inflation pressure was measured using a Statham pressure transducer (Gould Instruments, Cleveland, Ohio) connected to the tracheal cannula via a side-arm and recorded on a Grass Instruments recorder (Quincy, Mass.). The tidal volume (approximately 10 cc/kg) was adjusted to give a baseline inflation pressure of 8-10 cm H2 O at end inspiration. Animals were then allowed 20 min to stabilize.
# Following the stabilization period, animals were given i.v. injections of pyrilamine (5 mg/kg), propranolol (0.1 mg/kg) and indomethacin (10 mg/kg) at 15, 10 and 5 min, respectively, prior to antigen challenge. This pretreatment results in an LT-dependent bronchoconstriction following antigen challenge, which was accomplished by i.v. administration of ovalbumin (10 mg/kg). Only one bronchoconstriction per animal was induced. End-inspiratory inflation pressure (in cm H2 O over baseline) was measured at 5 min post-antigen challenge. A mean value and standard error for the % inhibition of control bronchoconstriction in each drug-treated group was then calculated.
# [2] = 10 mg/kg, pretreatment period 6 hr
Compound,"% Inhibition of LTB4 (Lipoxygenase; 25 mg/kg, pretreatment period 3 hr)",% Inhibition LTB4 Synthesis (LTB4 Synthesis; 25 mg/kg),% Inhibition of LTB4 (Lipoxygenase; [2]),% Inhibition LTB4 Synthesis (LTB4 Synthesis; 10 mg/kg),"inhibition in vivo at 25 mg/kg ([1]; po, 25 mg/kg p.o.)",inhibition in vivo at 10 mg/kg [1],"% Inhibition of LTB4 (Lipoxygenase; 5 mg/kg, pretreatment period 6 hr)"
"Cc1oc(-c2ccccc2)nc1COc1cccc(CN(O)C(N)=O)c1 [Example 1, 1-Hydroxy-1-[3-(5-methyl-2-phenyl-oxazol-4-ylmethoxy)-benzyl]-urea]",86%,79%,,,,,
"NC(=O)N(O)Cc1cccc(OCc2csc(-c3ccccc3)n2)c1 [Example 5, 1-Hydroxy-1-[3-(2-phenyl-thiazol-4-ylmethoxy)-benzyl]-urea]",,,80%,43%,29%,,
"NC(=O)N(O)Cc1cccc(OCc2csc(-c3ccc(Cl)cc3)n2)c1 [Example 6, 1-Hydroxy-1-[3-[2-(4-chloro-phenyl)-thiazol-4-ylmethoxy]-benzyl]-urea]",,,67%,,,70%,
"Cc1oc(-c2ccc(F)cc2)nc1COc1cccc(CN(O)C(N)=O)c1 [Example 9, 1-[3-[2-(4-fluorophenyl)-5-methyl-oxazol-4-ylmethoxy]-benzyl]-1-hydroxy-urea]",,,50%,27%,,65%,
"Cc1oc(-c2ccccc2)nc1COc1cc(F)cc(CN(O)C(N)=O)c1 [Example 13, 1-[3-Fluoro-5-(5-methyl-2-phenyl-oxazol-4-ylmethoxy)-benzyl]-1-hydroxy-urea]",,,,17%,,29%,52%
